Measured values reported in patent publication US20250332173A1, “COMPOUNDS AND METHODS FOR MODULATING NUCLEIC ACID SPLICING” (REMIX THERAPEUTICS INC., priority 2021, published 2025).
Like-named read-outs stand apart in the source and are kept apart here.

What was measured:
Type in all cases: cell-based, human
[1] = system: MYB mRNA; assay: RT-qPCR splicing assay, MYB canonical junction (CJ) and alternative junction (AJ) mRNA; conditions: Homo sapiens; for AC50: increase in MYB alternative junction (AJ) mRNA, read-out: MYB AJ AC50
Procedure, shortened: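 A673 or K562 cells were treated for 24 h at 37 °C with an 11-point 3-fold compound dilution series (top final concentration 10 uM, DMSO ≤0.25%). After lysis, one-step TaqMan RT-qPCR quantified junction transcripts, normalized to PPIA for A673 or to GAPDH/GUSB for K562.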

[2] = system: Target C; assay: RT-qPCR splicing assay panel, Target C canonical junction (CJ) mRNA; conditions: Homo sapiens
Procedure, shortened: (§1)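 A673 or K562 cells were treated for 24 h at 37 °C with compound in 11-point 3-fold dilution (top 10 uM final, DMSO ≤0.25%). Lysates then went to one-step RT-qPCR measuring canonical-junction mRNA, normalized to GAPDH, GUSB or PPIA.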

[3] = system: SMN2 mRNA; assay: RT-qPCR splicing assay, SMN2 canonical junction (CJ) mRNA; conditions: Homo sapiens
Procedure, shortened: as §1

[4] = system: Target C; assay: HiBiT protein abundance assay, Target C (Promega Nano-Glo HiBiT Lytic Detection System, knock-in K562 cell line); conditions: Homo sapiens, K562, 24 h, HiBiT K562 cell line, 24 hours, top dose 10 μM; read-out: Effect on protein abundance, Target C (IC50 category)
Procedure, shortened: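 HiBiT knock-in K562 cells (10,000/well) were treated for 24 h at 37 °C with a 10-point 3-fold dilution series, top final concentration 10 μM, DMSO ≤0.25%. Lytic HiBiT luminescence was read, normalized to unmodified K562 and DMSO-treated controls, and IC50 was interpolated from a four-parameter logistic fit.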

[5] = canonical junction qPCR panel, Table 5, read-out: MYB (decrease in CJ mRNA levels, IC50)
[6] = decrease in MYB canonical junction (CJ) mRNA, RT-qPCR, read-out: MYB CJ IC50
[7] = canonical junction qPCR panel, Table 5, read-out: Target C (decrease in CJ mRNA levels, IC50)
[8] = canonical junction qPCR panel, Table 5, read-out: SMN2 (decrease in CJ mRNA levels, IC50)
[9] = Table 5 panel, canonical junction qPCR, compound concentration having 50% response in CJ decrease, read-out: MYB IC50 (decrease in CJ mRNA levels)
[10] = Table 5 panel, canonical junction qPCR, compound concentration having 50% response in CJ decrease, read-out: Target C IC50 (decrease in CJ mRNA levels)
[11] = Table 5 panel, canonical junction qPCR, compound concentration having 50% response in CJ decrease, read-out: SMN2 IC50 (decrease in CJ mRNA levels)

SMILES	IC50 [1, 5]	IC50 [1, 6]	AC50 ([1]; RT-qPCR)	IC50 [2, 7]	IC50 [3, 8]	IC50 [4]	IC50 [1, 9]	IC50 [2, 10]	IC50 [3, 11]
Cc1cn2nc(-c3ccc4c(=O)n([C@@H]5CCNC5)ccc4n3)cc(C)c2n1 [Compound 1438, 2-(2,8-dimethylimidazo[1,2-b]pyridazin-6-yl)-6-[(3R)-pyrrolidin-3-yl]-1,6-naphthyridin-5-one]	0.1 to 1 µM	0.1 to 1 µM	0.1 to 1 µM	1 to 10 µM	< 0.1 µM	1 to 10 µM	–	–	–
Cc1c(O)c(-c2ncc3c(=O)n([C@H]4CCNC(C)(C)C4)ccc3n2)cc2cn(C)nc12 [Compound 1436]	< 0.1 µM	< 0.1 µM	< 0.1 µM	1 to 10 µM	< 0.1 µM	0.1 to 1 µM	–	–	–
Cc1cn2cc(-c3ccc4c(=O)n(C5CCNCC5)ccc4n3)cc(C)c2n1 [Compound 1241, 2-(2,8-dimethylimidazo[1,2-a]pyridin-6-yl)-6-(piperidin-4-yl)-1,6-naphthyridin-5(6H)-one]	< 0.1 µM	< 0.1 µM	< 0.1 µM	1 to 10 µM	< 0.1 µM	< 0.1 µM	–	–	–
Cc1c(O)c(-c2ncc3c(=O)n([C@H]4C[C@H](N)C4)ccc3n2)cc2cn(C)nc12 [Compound 1432, 6-((1r,3r)-3-aminocyclobutyl)-2-(6-hydroxy-2,7-dimethyl-2H-indazol-5-yl)pyrido[4,3-d]pyrimidin-5(6H)-one]	0.1 to 1 µM	0.1 to 1 µM	0.1 to 1 µM	1 to 10 µM	< 0.1 µM	1 to 10 µM	–	–	–
Cc1cc(-c2cc3ccn(C4CCN(C5CC5)CC4)c(=O)c3cn2)cc2cn(C)nc12 [Compound 1208, 2-(1-cyclopropylpiperidin-4-yl)-6-(2,7-dimethyl-2H-indazol-5-yl)-2,7-naphthyridin-1(2H)-one]	–	1 to 10 µM	1 to 10 µM	–	–	> 10 µM	1 to 10 µM	> 10 µM	0.1 to 1 µM
Cc1c(O)c(-c2ncc3c(=O)n(C45CCC(N)(CC4)C5)ccc3n2)cc2cn(C)nc12 [Compound 1428]	0.1 to 1 µM	0.1 to 1 µM	0.1 to 1 µM	1 to 10 µM	< 0.1 µM	1 to 10 µM	–	–	–
Cc1cn2cc(-c3ncc4c(=O)n(C5CCNC5)ccc4n3)cc(F)c2n1 (stereo not drawn) [Compound 1215]	–	1 to 10 µM	0.1 to 1 µM	–	–	1 to 10 µM	0.1 to 1 µM	> 10 µM	< 0.1 µM
Cc1c(O)c(-c2ccc3c(=O)n(C4CC(C)NC(C)C4)ccc3n2)cc2cn(C)nc12 (stereo not drawn) [Compound 1447, 6-(2,6-dimethyl-4-piperidyl)-2-(6-hydroxy-2,7-dimethyl-indazol-5-yl)-1,6-naphthyridin-5-one]	0.1 to 1 µM	0.1 to 1 µM	0.1 to 1 µM	1 to 10 µM	< 0.1 µM	0.1 to 1 µM	–	–	–
Cn1cc2cc(-c3ccc4c(=O)n([C@@H]5CCNC5)ccc4n3)c(O)c(F)c2n1 [Compound 1452, 2-(7-fluoro-6-hydroxy-2-methyl-indazol-5-yl)-6-[(3R)-pyrrolidin-3-yl]-1,6-naphthyridin-5-one]	< 0.1 µM	0.1 to 1 µM	< 0.1 µM	0.1 to 1 µM	< 0.1 µM	0.1 to 1 µM	–	–	–
Cc1c(O)c(-c2ncc3c(=O)n(C4CCNC4)ccc3n2)cc2cn(C)nc12 (stereo in doubt) [Compound 1440, (6S)-2-(6-hydroxy-2,7-dimethyl-indazol-5-yl)-6-pyrrolidin-3-yl-pyrido[4,3-d]pyrimidin-5-one]	0.1 to 1 µM	0.1 to 1 µM	0.1 to 1 µM	> 10 µM	< 0.1 µM	> 10 µM	–	–	–
Cc1cn2nc(-c3cc4ccn(C5CCNCC5)c(=O)c4cn3)cc(C)c2n1 [Compound 1198, 6-(2,8-dimethylimidazo[1,2-b]pyridazin-6-yl)-2-(piperidin-4-yl)-2,7-naphthyridin-1(2H)-one]	–	0.1 to 1 µM	0.1 to 1 µM	–	–	0.1 to 1 µM	0.1 to 1 µM	0.1 to 1 µM	0.1 to 1 µM
Cc1c(O)c(-c2ccc3c(=O)n([C@H]4CCNC4)ccc3n2)cc2cn(C)nc12 [Compound 1449, 2-(6-hydroxy-2,7-dimethyl-indazol-5-yl)-6-[(3S)-pyrrolidin-3-yl]-1,6-naphthyridin-5-one]	0.1 to 1 µM	0.1 to 1 µM	0.1 to 1 µM	> 10 µM	< 0.1 µM	1 to 10 µM	–	–	–
